The values below are quoted from earlier work in patent publication EP4755392A1, “ORAL PREPARATION FOR IMPROVING MINIMAL ERYTHEMA DOSE” (Mitsubishi Corporation Life Sciences Limited, priority 2023, dated 2025).

The conditions of this data set: after 6 months, ingesting 250 mg or more.

Turning to `N[C@@H](CCC(=O)N[C@@H](CS)C(=O)NCC(=O)O)C(=O)O` [glutathione], the “blood glutathione amount increased” value is listed as 17%.
